The results in this text go back to ChEMBL document CHEMBL1151127, “Studies of Swedish Marine Organisms, Part X. Biologically Active Compounds from the Marine Sponge Geodia baretti” (1988).

Experiment [1] relates to Ileum. The experiment is described as follows: Inhibition of electrically-stimulated contraction in guinea pig ileum at 67 ug/ml. Type of experiment: functional. The conditions noted are these: Cavia porcellus.
Experiment [2] deals with Ileum. In words: Contractile activity in guinea pig ileum at 67 ug/ml relative to histamine. Type of experiment: functional, Cavia porcellus.
Experiment [3] has as its system Ileum. The experiment is described as follows: Inhibition of electrically-stimulated contraction in guinea pig ileum at 232 ug/ml. Particulars: Cavia porcellus. It is filed as functional.
The subject of experiment [4] is Ileum. In words: Contractile activity in guinea pig ileum at 232 ug/ml relative to histamine. Type of experiment: functional, Cavia porcellus.
For experiment [5], the system named is Ileum. The experiment is described as follows: Contractile activity in guinea pig ileum at 50 ug/ml relative to histamine. Type of experiment: functional, Cavia porcellus.
Experiment [6] concerns Ileum. The experiment is described as follows: Inhibition of electrically-stimulated contraction in guinea pig ileum at 50 ug/ml. It is filed as functional. Particulars: Cavia porcellus.
Experiment [7] has as its system Ileum. The experiment is described as follows: Inhibition of electrically-stimulated contraction in guinea pig ileum at 15 ug/ml. It is filed as functional. The conditions noted are these: Cavia porcellus.
In experiment [8] the test system is Ileum. The experiment is described as follows: Contractile activity in guinea pig ileum at 15 ug/ml relative to histamine. Type of experiment: functional, Cavia porcellus.
The test system of experiment [9] is Ileum. The experiment is described as follows: Inhibition of electrically-stimulated contraction in guinea pig ileum at 1200 ug/ml. It is filed as functional. The conditions noted are these: Cavia porcellus.
The test system of experiment [10] is Ileum. In words: Contractile activity in guinea pig ileum at 1200 ug/ml relative to histamine. It is filed as functional, Cavia porcellus.
Experiment [11] concerns Ileum. In words: Contractile activity in guinea pig ileum at 200 ug/ml relative to histamine. It is filed as functional, Cavia porcellus.
The test system of experiment [12] is Ileum. In words: Inhibition of electrically-stimulated contraction in guinea pig ileum at 200 ug/ml. Type of experiment: functional. Particulars: Cavia porcellus.

Turning to `Cn1c(=N)ccn([C@@H]2O[C@H](CO)[C@@H](O)[C@H]2O)c1=O`, the inhibition (usually how much of the control response was suppressed) at 67 µg/mL in the experiment with Ileum [1] worked out at 0%. The Activity in the experiment on Ileum [2] is given as 60%.
On to `Cn1c(=N)ccn([C@H]2C[C@H](O)[C@@H](CO)O2)c1=O`, for which, in the experiment with Ileum [3], at 232 µg/mL the inhibition was 0%. In the experiment on Ileum [4], this compound registered an Activity of 60%.
The compound `Cn1c(=O)ccn([C@H]2C[C@H](O)[C@@H](CO)O2)c1=O` showed an Activity in the experiment with Ileum [5] of 0%. This compound yielded an inhibition at 50 µg/mL in the experiment on Ileum [6] of 0%.
The compound `Nc1ncnc2c1ncn2[C@@H]1O[C@H](CO)[C@@H](O)[C@H]1O` [ADENOSINE] returned an inhibition at 15 µg/mL with Ileum [7] of 85%. In the experiment on Ileum [8], the Activity amounted to 0%.
On the same counts, the results for `N=C(N)NCCC[C@@H]1NC(=O)/C(=C/c2c[nH]c3cc(Br)ccc23)NC1=O` [BARETTIN] are 62% and 0%.
`Nc1ccn([C@@H]2O[C@H](CO)[C@@H](O)[C@H]2O)c(=O)n1` [CYTIDINE] registered an inhibition at 1200 µg/mL in the experiment on Ileum [9] of 0%. Besides, the Activity in the experiment with Ileum [10] was 0%.
`Nc1ccn([C@H]2C[C@H](O)[C@@H](CO)O2)c(=O)n1` [DOXECITINE]: in the experiment with Ileum [9], the inhibition at 1200 µg/mL amounted to 27%. The Activity with Ileum [10] was determined as 0%.
`O=c1[nH]cnc2c1ncn2[C@@H]1O[C@H](CO)[C@@H](O)[C@H]1O` [INOSINE] had an Activity with Ileum [11] of 0%. For the same compound, in the experiment with Ileum [12], the inhibition at 200 µg/mL is 23%.
On to `O=c1ccn([C@@H]2O[C@H](CO)[C@@H](O)[C@H]2O)c(=O)[nH]1` [URIDINE], for which the inhibition at 1200 µg/mL in the experiment with Ileum [9] is 83%. The same compound returned an Activity in the experiment with Ileum [10] of 0%.
